Assay: Solubility test of compound in safe solvent
Assay type: physicochemical
Details: 23° C., ultrasonic wave 30 minutes, visual evaluation; for Solubility test of compound in safe solvent CHN: CHN (cyclohexanone); for Solubility test of compound in safe solvent PGME: PGME (propylene glycol monomethyl ether)
Description: (1) Solubility Test of Compound in Safe Solvent
The solubility of the compound in CHN, PGME and PGMEA was evaluated according to the following standard using the dissolution amount in each solvent. The dissolution amount was determined by precisely weighing the compound in a test tube at 23° C.; adding the target solvent to the compound so that a predetermined concentration of the liquid to be obtained was set; applying a ultrasonic wave to the liquid in an ultrasonic washing machine for 30 minutes; and visually evaluating the state of the resulting liquid.
A: 5.0% by mass Dissolution amount
B: 3.0% by mass Dissolution amount <5.0% by mass
C: Dissolution amount <3.0% by mass

SMILES	Solubility test of compound in safe solvent CHN	Solubility test of compound in safe solvent PGME	Solubility test of compound in safe solvent PGMEA
CC(C)(C)OC(=O)COc1ccc2c3c(ccc2c1)Oc1ccc2cc(OCC(=O)OC(C)(C)C)ccc2c1C3c1ccc(-c2ccccc2)cc1 [XBisN-1-MeBOC]	A (5.0% by mass Dissolution amount)	A (5.0% by mass Dissolution amount)	B (3.0% by mass Dissolution amount <5.0% by mass)
CC(C)(C)OC(=O)Oc1ccc(C(c2ccc(OC(=O)OC(C)(C)C)cc2)c2ccc3ccc(C(c4ccc(OC(=O)OC(C)(C)C)cc4)c4ccc(OC(=O)OC(C)(C)C)cc4)cc3c2)cc1 [TetP-1-BOC, reference compound]	A (5.0% by mass Dissolution amount)	A (5.0% by mass Dissolution amount)	A (5.0% by mass Dissolution amount)
CC(C)(C)OC(=O)Oc1ccc2c3c(ccc2c1)Oc1ccc2cc(OC(=O)OC(C)(C)C)ccc2c1C3c1ccc(-c2ccccc2)cc1 [XBisN-1-BOC]	A (5.0% by mass Dissolution amount)	B (3.0% by mass Dissolution amount <5.0% by mass)	A (5.0% by mass Dissolution amount)
CC(C)(C)OC(=O)Oc1ccc2c(C(c3ccc(-c4ccccc4)cc3)c3c(OC(=O)OC(C)(C)C)ccc4cc(OC(=O)OC(C)(C)C)ccc34)c(OC(=O)OC(C)(C)C)ccc2c1 [BisN-1-BOC]	A (5.0% by mass Dissolution amount)	B (3.0% by mass Dissolution amount <5.0% by mass)	A (5.0% by mass Dissolution amount)
CC(C)(C)OC(=O)COc1ccc2c(C(c3ccc(-c4ccccc4)cc3)c3c(OCC(=O)OC(C)(C)C)ccc4cc(OCC(=O)OC(C)(C)C)ccc34)c(OCC(=O)OC(C)(C)C)ccc2c1 [BisN-1-MeBOC]	A (5.0% by mass Dissolution amount)	A (5.0% by mass Dissolution amount)	B (3.0% by mass Dissolution amount <5.0% by mass)

Source: patent US10377734B2, “Resist composition, method for forming resist pattern, polyphenol derivative for use in the composition” (Mitsubishi Gas Chemical Company, Inc., priority 2013, dated 2019)
